One test concerns A549 cells. Nature of the test: SRB assay in A549. The test is classed as cell-based, human. The protocol:
(§1) Sulfor hod am ine B p rotei n st ai ning (SRB) assay
(§2) Cell pr oliferat ion was eva lua ted by sul for hod amine B pr ot ein st aini ng (SRB) assa y10-12.
(§3) Briefly, cel ls were se ede d int o 96-well pl ates, cul tur ed overni ght , and trea ted with correspond ing com poun ds for 72 h. Cells were the n fixe d with 10% trichl or oa cetic aci d and st ained with sul for hoda mine B (Sigm a). Sul for hoda mine B in the cells was di sso lved in 10 mmol/L Tris-HCl and was measured at 515 nm usi ng a multiw ell spect ropho tometer (VERSA max, Mol ecul ar Devi ces, Sunnyva le, CA). The inhi bi tion rat e on cell pr olif eratio n was cal culated for each well as (A515contr ol cells-A 515tr eated cells)/A515contr ol cells×100 % (A515:
(§4) OD va lue at 515 nm ). The averag e IC50 va lue s were de termine d by Logit method from at leas t t hr eei nde pe nde nt test s.

Another test addresses T1, NMNAT (Mus musculus, UniProt Q9EPA7).
T1 construct: His-tag; made in house; host or cells: E. coli BL21-CodonPlus (DE3)-RIL
Nature of the test: Isothermal titration calorimetry (ITC). The conditions noted are these: 554 μM MS0 into 25 μM protein, 25 °C. Format: binding. As to the method:
Thermodynamic parameters of small molecule binding to protein were determined using a MicroCal VP-ITC calorimeter. NMNAT protein solutions were ultrafiltrated in Amicon Ultra-0.5 Centrifugal Filter Unit (Merck Millipore) against buffer [20 mM Tris (pH 7.5), 20 mM NaCl], which was subsequently used to prepare a matched compound solution. […] Measurements were performed at 25 °C with spacing of 90 s between injections.
Pr otei n e xp ressi on andpur ification
Prot eins were expres se d and pur ified by our pr e vi ous methods2,3. […]
The pur ity of the pr ot ein was more tha n 90% de term ine d by SDS-PAGE and Coo massi e Blue (Tiange n, C hi na) staining and f ur the r by w est ern bl ot a na lysi s (Fig. S1).
High t hrou ghput sc reen ing (HTS)
HTS was pe rfor med usi ng our previ ously repor ted method 3. 0.5 μl st oc k of each com poun d (1 mM DMSO st oc k) was transf erred to a 96-well PCR pl ate for sc ree ni ng. […] Fina lly, 85 μl mixt ur es in each well were transf erred int o a flat-bottom 96-well black plate (Greiner) , and the fluoresc enc e (F) was measured usi ng a Teca n Inf inity M200 pl ate reader (Tecan Group Lt d.) by se tting the exc itation and emissi on wave leng th to 382 nm and 445nm respe ctive ly. […]
(In general: In ITC the heat of successive injections is recorded.)

Test [1] relates to ovarian cancer cell line A2780. Briefly: SRB assay in A2780. The conditions noted are these: A2780, 72 hours. Format: cell-based, human. The protocol: as §1, §2, §3, §4
On the technique in general: In SRB staining, fixed cells bind dye roughly in proportion to their protein.

The subject of test [2] is osteosarcoma cell line U2OS. Briefly: SRB assay in U2OS. The conditions noted are these: 72 hours. The test is classed as cell-based, human. As to the method: as §1, §2, §3, §4
Another test deals with NAMPT. The conditions noted are these: read-out: biochemical potency IC50; reported independently by Zheng et al. ref 19, 22; cited from earlier work.
Test [3] relates to metastatic lung cancer cell line 95-D. Nature of the test: SRB assay in 95-D. The test is classed as cell-based, human. The conditions noted are these: 72 hours. The protocol:
as §1, §2, §3, §4

“Also recorded” adds a separate entry of the source.

T1 sequence (Q9EPA7 whole entry): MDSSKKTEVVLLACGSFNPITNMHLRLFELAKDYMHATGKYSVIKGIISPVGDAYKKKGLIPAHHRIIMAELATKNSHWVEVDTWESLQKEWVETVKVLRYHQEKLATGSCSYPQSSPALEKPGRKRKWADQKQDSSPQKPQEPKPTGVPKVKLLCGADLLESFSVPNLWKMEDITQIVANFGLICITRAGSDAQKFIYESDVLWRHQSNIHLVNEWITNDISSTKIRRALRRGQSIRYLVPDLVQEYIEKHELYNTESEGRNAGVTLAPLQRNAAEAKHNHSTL

For the compound `O=S(=O)(c1ccc(NC(=S)NCc2cccnc2)cc1)N1CCCCC1` [MS0], the “growth inhibition (SRB, in words)” value was “potent growth inhibition” with A549 cells (A549, 72 hours); “potent growth inhibition” in test [1]; “potent growth inhibition” in test [2]; “potent growth inhibition” in test [3]. For the same compound, the IC50 was under 5000 nM with A549 cells (Homo sapiens, A549, read-out: anti-proliferation IC50, initial screen) and […] in the test on NAMPT. For the same compound, the “interaction with NMNAT by ITC” value at NMNAT is recorded as “did not detect an interaction; also recorded: does not show detectable interaction”.
